This is an account of results in ChEMBL document CHEMBL3991601, “The target landscape of clinical kinase drugs” (Science, 2017).

Active and inactive are the calls of the source.

The target in assay [1] is T1, Mitogen-activated protein kinase kinase kinase 5 (Homo sapiens, UniProt Q99683).
T1 sequence (Q99683 whole entry): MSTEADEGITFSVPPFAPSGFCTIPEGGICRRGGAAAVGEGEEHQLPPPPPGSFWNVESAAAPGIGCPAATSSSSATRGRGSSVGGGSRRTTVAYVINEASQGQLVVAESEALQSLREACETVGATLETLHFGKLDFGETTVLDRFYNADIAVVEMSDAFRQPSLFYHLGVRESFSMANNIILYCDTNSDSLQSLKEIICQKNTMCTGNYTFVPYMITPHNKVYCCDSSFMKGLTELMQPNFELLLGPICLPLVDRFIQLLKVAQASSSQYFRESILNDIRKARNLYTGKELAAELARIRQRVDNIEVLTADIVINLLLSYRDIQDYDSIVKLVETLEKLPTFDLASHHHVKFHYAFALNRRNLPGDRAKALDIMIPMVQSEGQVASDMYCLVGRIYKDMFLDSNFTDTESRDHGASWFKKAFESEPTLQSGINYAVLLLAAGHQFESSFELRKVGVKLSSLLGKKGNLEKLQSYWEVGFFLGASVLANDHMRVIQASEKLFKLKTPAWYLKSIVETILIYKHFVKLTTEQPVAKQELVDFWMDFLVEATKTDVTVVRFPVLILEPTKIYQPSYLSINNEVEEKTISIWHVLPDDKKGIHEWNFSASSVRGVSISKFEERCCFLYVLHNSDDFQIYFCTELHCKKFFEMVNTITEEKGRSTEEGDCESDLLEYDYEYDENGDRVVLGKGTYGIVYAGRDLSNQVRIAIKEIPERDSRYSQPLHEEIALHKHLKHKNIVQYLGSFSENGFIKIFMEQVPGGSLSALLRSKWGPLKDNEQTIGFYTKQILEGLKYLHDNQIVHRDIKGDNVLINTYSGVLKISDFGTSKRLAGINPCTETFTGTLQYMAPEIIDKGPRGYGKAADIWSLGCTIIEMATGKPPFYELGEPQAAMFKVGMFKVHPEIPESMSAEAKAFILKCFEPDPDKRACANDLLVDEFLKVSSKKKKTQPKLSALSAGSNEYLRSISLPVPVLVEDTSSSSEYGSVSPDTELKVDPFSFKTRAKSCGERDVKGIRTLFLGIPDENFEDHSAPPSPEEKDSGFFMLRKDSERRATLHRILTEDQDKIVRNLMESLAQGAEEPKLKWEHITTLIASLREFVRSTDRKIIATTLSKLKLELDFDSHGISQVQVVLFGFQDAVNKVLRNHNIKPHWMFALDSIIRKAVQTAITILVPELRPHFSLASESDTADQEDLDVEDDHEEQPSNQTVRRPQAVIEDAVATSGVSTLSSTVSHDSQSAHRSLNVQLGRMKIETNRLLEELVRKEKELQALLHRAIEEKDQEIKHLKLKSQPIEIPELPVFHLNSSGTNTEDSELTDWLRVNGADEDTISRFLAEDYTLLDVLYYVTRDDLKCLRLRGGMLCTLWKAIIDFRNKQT

Assay [2] concerns the target T2, Serine/threonine-protein kinase Nek9 (Homo sapiens, UniProt Q8TD19).
T2 sequence (Q8TD19 whole entry): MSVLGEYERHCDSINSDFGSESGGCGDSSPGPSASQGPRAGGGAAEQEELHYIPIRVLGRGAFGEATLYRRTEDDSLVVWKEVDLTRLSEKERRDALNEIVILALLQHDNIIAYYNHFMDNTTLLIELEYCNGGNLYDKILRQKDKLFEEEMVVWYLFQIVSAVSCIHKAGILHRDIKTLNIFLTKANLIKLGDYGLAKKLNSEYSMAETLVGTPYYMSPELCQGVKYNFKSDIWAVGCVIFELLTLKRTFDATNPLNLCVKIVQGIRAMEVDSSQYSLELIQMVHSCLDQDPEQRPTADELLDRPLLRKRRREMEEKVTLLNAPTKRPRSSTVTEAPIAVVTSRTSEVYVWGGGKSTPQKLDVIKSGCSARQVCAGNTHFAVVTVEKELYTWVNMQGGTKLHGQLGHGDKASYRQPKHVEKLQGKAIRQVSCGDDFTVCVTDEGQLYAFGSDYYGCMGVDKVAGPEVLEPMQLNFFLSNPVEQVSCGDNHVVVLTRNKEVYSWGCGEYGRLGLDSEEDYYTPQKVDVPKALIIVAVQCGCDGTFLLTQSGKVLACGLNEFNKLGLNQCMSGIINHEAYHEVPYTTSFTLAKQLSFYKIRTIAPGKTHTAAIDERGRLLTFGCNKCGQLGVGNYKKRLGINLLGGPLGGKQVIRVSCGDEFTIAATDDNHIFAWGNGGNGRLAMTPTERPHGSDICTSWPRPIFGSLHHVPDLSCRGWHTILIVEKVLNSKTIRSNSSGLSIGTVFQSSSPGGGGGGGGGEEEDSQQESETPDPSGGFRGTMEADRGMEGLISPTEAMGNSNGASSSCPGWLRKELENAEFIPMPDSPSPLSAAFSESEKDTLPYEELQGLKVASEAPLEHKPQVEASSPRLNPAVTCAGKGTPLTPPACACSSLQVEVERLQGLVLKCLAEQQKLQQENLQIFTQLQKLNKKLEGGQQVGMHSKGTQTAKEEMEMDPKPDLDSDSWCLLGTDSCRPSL

Assay [3] deals with Protein kinase C theta type (Homo sapiens, UniProt Q04759).
Also: in the data inactive means no Kd found up to 30 µM.

Chain of Protein kinase C theta type (Q04759 whole entry): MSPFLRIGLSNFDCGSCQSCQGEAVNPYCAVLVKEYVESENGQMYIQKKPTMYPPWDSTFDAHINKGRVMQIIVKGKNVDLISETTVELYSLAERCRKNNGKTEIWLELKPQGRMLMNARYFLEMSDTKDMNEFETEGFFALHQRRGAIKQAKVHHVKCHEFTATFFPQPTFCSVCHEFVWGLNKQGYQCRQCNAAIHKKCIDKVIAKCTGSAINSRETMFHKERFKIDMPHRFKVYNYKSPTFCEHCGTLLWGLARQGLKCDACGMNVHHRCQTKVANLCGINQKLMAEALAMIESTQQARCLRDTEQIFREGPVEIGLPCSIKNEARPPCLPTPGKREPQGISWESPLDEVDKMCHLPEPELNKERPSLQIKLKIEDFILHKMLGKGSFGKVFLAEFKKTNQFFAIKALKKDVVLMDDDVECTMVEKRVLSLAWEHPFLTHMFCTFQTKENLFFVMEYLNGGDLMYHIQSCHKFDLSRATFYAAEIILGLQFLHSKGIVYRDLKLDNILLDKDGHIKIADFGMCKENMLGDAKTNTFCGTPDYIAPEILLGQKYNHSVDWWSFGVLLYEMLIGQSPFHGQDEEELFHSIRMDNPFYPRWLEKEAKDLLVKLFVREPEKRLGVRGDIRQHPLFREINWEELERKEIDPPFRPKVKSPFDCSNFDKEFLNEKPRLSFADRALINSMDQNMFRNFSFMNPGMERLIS

For the compound `CO[C@H]1C[C@@H]2CC[C@@H](C)[C@@](O)(O2)C(=O)C(=O)N2CCCC[C@H]2C(=O)O[C@H]([C@H](C)C[C@@H]2CC[C@@H](OP(C)(C)=O)[C@H](OC)C2)CC(=O)[C@H](C)/C=C(\C)[C@@H](O)[C@@H](OC)C(=O)[C@H](C)C[C@H](C)/C=C/C=C/C=C/1C` [RIDAFOROLIMUS], the Kd in assay [1], in assay [2] and in assay [3] was > 30 µM (inactive) in each case.

On to `N#CC1(c2ccc(NC(=O)c3cccnc3NCc3ccncc3)cc2)CCCC1` [RIVOCERANIB], for which the Kd in assay [1], in assay [2] and in assay [3] was > 30 µM (inactive) each time.

Consider `O=c1[nH]ccc2cc(OC3CCNCC3)ccc12` [SAR-407899 FREE BASE], for which the Kd in assay [1], in assay [2] and in assay [3] was > 30 µM (inactive) throughout.

Take `CN1CCN(CCOc2cc(OC3CCOCC3)c3c(Nc4c(Cl)ccc5c4OCO5)ncnc3c2)CC1` [SARACATINIB]: the Kd in assay [1], in assay [2] and in assay [3] was > 30 µM (inactive) in each case.

For `Cn1cc(-c2cnn3c(N)c(Br)c([C@@H]4CCCNC4)nc23)cn1` [SCH-900776], the Kd in assay [1], in assay [2] and in assay [3] was > 30 µM (inactive) in each case.

Regarding `CO[C@H]1C[C@@H]2CC[C@@H](C)[C@@](O)(O2)C(=O)C(=O)N2CCCC[C@H]2C(=O)O[C@H]([C@H](C)C[C@@H]2CC[C@@H](O)[C@H](OC)C2)CC(=O)[C@H](C)/C=C(\C)[C@@H](O)[C@@H](OC)C(=O)[C@H](C)C[C@H](C)/C=C/C=C/C=C/1C` [SIROLIMUS], the Kd in assay [1], in assay [2] and in assay [3] was > 30 µM (inactive) in each case.

Take `CCS(=O)(=O)c1cccc(-c2cc(C(=O)NC3CCN(C)CC3)c(C)c3[nH]c4ncc(C)cc4c23)c1` [TAK-901]: the Kd in assay [1], in assay [2] and in assay [3] was > 30 µM (inactive) throughout.

For `CO[C@H]1C[C@@H]2CC[C@@H](C)[C@@](O)(O2)C(=O)C(=O)N2CCCC[C@H]2C(=O)O[C@H]([C@H](C)C[C@@H]2CC[C@@H](OC(=O)C(C)(CO)CO)[C@H](OC)C2)CC(=O)[C@H](C)/C=C(\C)[C@@H](O)[C@@H](OC)C(=O)[C@H](C)C[C@H](C)/C=C/C=C/C=C/1C` [TEMSIROLIMUS], the Kd in assay [1], in assay [2] and in assay [3] was > 30 µM (inactive) in each case.

Take `COc1cc2c(Nc3ccc(Cl)c(Cl)c3F)ncnc2cc1OC[C@@H]1C[C@@H]2CN(C)C[C@@H]2C1` [TESEVATINIB]: the Kd in assay [1], in assay [2] and in assay [3] was > 30 µM (inactive) each time.

In the case of `O=C(Cc1ccc(-c2ccc(OCCN3CCOCC3)cc2)cn1)NCc1ccccc1` [TIRBANIBULIN], the Kd in assay [1], in assay [2] and in assay [3] was > 30 µM (inactive) in each case.

For the compound `O=C1NC(=O)[C@@H](c2cn3c4c(cccc24)CCC3)[C@@H]1c1c[nH]c2ccccc12` [TIVANTINIB], the Kd in assay [1], in assay [2] and in assay [3] was > 30 µM (inactive) each time.

`C[C@@H](NC(=O)c1ncnc(N)c1Cl)c1ncc(C(=O)Nc2cc(C(F)(F)F)c(Cl)cn2)s1` [TOVORAFENIB]: the Kd in assay [1], in assay [2] and in assay [3] was > 30 µM (inactive) throughout.

`Cc1cc(Nc2ncnc3ccc(NC4=NC(C)(C)CO4)cc23)ccc1Oc1ccn2ncnc2c1` [TUCATINIB]: the Kd in assay [1], in assay [2] and in assay [3] was > 30 µM (inactive) each time.

In the case of `CC(C)c1cc(CNc2nc(Nc3cc(C4CC4)[nH]n3)cc(N3CCN(C)CC3)n2)on1` [XL-228], the Kd in assay [1], in assay [2] and in assay [3] was > 30 µM (inactive) each time.

As to `C[C@@H](N)c1ccc(C(=O)Nc2ccnc3[nH]ccc23)cc1` [Y-39983], the Kd in assay [1] is 50.5 µM (active); in assay [2], > 30 µM (inactive); in assay [3], 0.09 µM (active).

With `CN1C/C=C/CCOc2cccc(c2)-c2ccnc(n2)Nc2cccc(c2)C1` [ZOTIRACICLIB], the Kd in assay [1], in assay [2] and in assay [3] was > 30 µM (inactive) each time.
